Patent US20200276181A1, “THIENOISOQUINOLINES AND THEIR DERIVATIVES FOR TARGETING TUBULIN, CH-TOG, AURORA A KINASE, TPX2, CDK5RAP2 AND/OR ASPM” (VALORBEC, SEC, priority 2017, published 2020)

Tests used:
[1] = test system: HeLa cells in metaphase; assay: Short treatment and washout, spindle recovery; assay type: cell-based, human; conditions: 5 minutes treatment, washout, imaged after 40 minutes
Excerpt: (§1) For each condition, 20,000 cells were counted per replicate (N=3). Line graphs (right) were made to better illustrate the relative changes in the cell cycle phases for the different treatments. Bars show standard deviation. The asterisks indicate the first statistically significant change in the G0/G1 and G2/M populations determined by a two-way ANOVA with a post-hoc Tukey's multiple comparisons test using 95% confidence intervals. FIG. 2B) is a line graph showing the percentage of HCT116 (p53−/−) cells, A549 cells, HeLa cells and H1299 cells in mitosis after treatment with various concentrations of C75 for one population doubling time. All of the cell lines show an increase in the proportion of mitotic cells after treatment with 200 nM C75. The bars indicate standard deviation. […]
(§2) C75 was also tested for efficacy in different cancer cell lines. […] To further assess the role of C75 in disrupting spindles, HeLa cells were treated with 300 nM C75 for 4 hours and the spindle phenotypes were analyzed in more detail (FIG. 2E). […] To assess the affect of C75 on centrosomes, HeLa cells were treated with C75 or nocodazole (a drug that causes microtubule depolymerization as a control) for a short period of time (5 minutes), then the drugs were removed and the cells were analyzed for spindle phenotypes (schematic in FIG. 2G). […]

[2] = test system: HCT116 cells; assay: Mitotic arrest after one population doubling time; assay type: cell-based; conditions: HCT116, most responsive
Excerpt: as §1, §2

[3] = target: Purified free alpha and beta tubulin dimers (Homo sapiens, UniProt P07437+Q71U36); assay: Microtubule polymerization in vitro; assay type: biochemical; conditions: 35 minutes at 37° C., Mg2+ and GTP, 20% glycerol buffer
Experimental: FIG. 10 is a graph showing microtubule polymerization in vitro in the presence of 200 nM C75 or DMSO (control). Bars show SEM. Microtubules fail to polymerize in the presence of C75, but not in control samples, showing that tubulin could be a target of C75 in vitro.
Purified free alpha and beta tubulin dimers were added at a concentration of […] to a 20% glycerol buffer and allowed to polymerize in the presence of Mg^2+ and GTP for 35 minutes at 37° C. While DMSO had no effect on microtubule polymerization, 200 nM of C75 prevented polymerization. […] This supports that C75 binds tubulin at a different site compared to other microtubule-depolymerizing drugs.

[4] = test system: HeLa cells; assay: Viability IC50 of C75 in combination with subthreshold tubulin-targeting drug; assay type: cell-based, human
Excerpt: Bars show standard deviation. […] The bars indicate standard deviation. […] The bars indicate standard deviation. […] The scale bar for all cells is 10 μm.
Bars show standard deviation. […] The scale bar for all cells is 10 μm. In FIG. 4F), bar graphs show changes in the proportion of HCT 116 cells with the different spindle phenotypes as in FIG. 4D (n=2368; N=3). […] Bars indicate standard deviation.

[5] = test system: HeLa cells (GFP:tubulin, SiR-tubulin or GFP-tagged ch-TOG); assay: Live imaging of spindles; assay type: cell-based, human
Excerpt: Bars show standard deviation. […] The bars indicate standard deviation. […] Bars show standard deviation. […] Bars show standard deviation. […] The scale bar for all cells is 10 μm.

Compound: COc1ccc(S(=O)(=O)N2Cc3ccccc3-c3sc(Br)cc32)cc1 [Compound C75]
- spindles reformed after drug removal [1]: tri- or multipolar spindles formed
- concentration at which mitotic cells increase [2]: 100 nM
- concentration that prevented microtubule polymerization [3]: 200 nM
- lowering of the IC50 of C75 by subthreshold colchicine ([4]; + 3 nM colchicine): ~2 fold
- reduction of the IC50 of C75 by subthreshold paclitaxel ([4]; + 3 nM paclitaxel): ~2 fold
- time until spindle poles collapse together in metaphase cells ([5]; 100-300 nM): 1 to 2 min
- time after exposure until centrosomes fragmented or declustered and microtubules collapsed ([5]; HeLa live imaging): 4 to 6 min
- time after washout until microtubule polymers grew back ([5]; HeLa live imaging): 20 to 30 min
- microtubule polymers without washout ([5]; HeLa live imaging, drugs not washed out): microtubule polymers grow back to form multipolar spindles
